In patent US6599713B1, “Method for quantitating leukocyte count in whole blood sample” (priority 1999, dated 2003):

System: white blood cells contained in a whole blood sample
Assay: MPO-releasing effects of various surfactants on whole blood, ELISA (Examples 3 to 5)
Format: cell-based, human
Conditions: Example 3 (Table 3): 500 μl blood + 500 μl 1% (w/v) surfactant solution, 60 minutes on ice, mean ± SD of 3
Protocol: 10 ml of healthy human whole blood was collected using a 28 G winged intravenous injection needle (manufactured and sold by Terumo Corporation, Japan), and immediately mixed with 10 mg of EDTA-2K (manufactured and sold by Dojin Laboratories, Japan), and the resultant EDTA-containing whole blood sample was subjected to the below-described various measurements within 1 hour from the blood collection.
500 μl of the blood was put in a 2-ml Eppendorf tube, and 500 μl of a 1% (w/v) aqueous surfactant solution was added to the tube, and the resultant mixture was stirred for 2 seconds by a Vortex mixer. Subsequently, the mixture was allowed to stand for 60 minutes on ice to thereby lyze the white blood cells. After the lysis of the white blood cells, 100 μl of the mixture was taken out and added to 900 μl of a PBS solution containing dissolved therein 1% BSA (trade name: “Sigma fraction V”, manufactured and sold under the brand of SIGMA™, U.S.A.). The resultant mixture was stirred by a Vortex mixer, and then 10 μl of the mixture was taken out and diluted 2,000-fold with 1% BSA/PBS solution. The resultant diluted mixture was subjected to a measurement by ELISA.
The outline of the ELISA is as follows. A 5 μg/ml PBS solution of an anti-MPO antibody was put into the wells of a Nunc Immuno Plate (manufactured and sold by Nalge Nunc International, Denmark) in an amount of 100 μl per well. The solution in each well was sealed and subjected to a reaction for 18 hours at 4° C. thereby immobilizing the primary antibody. The wells were washed with a washing solution (0.05% Tween™ 20/PBS) and then subjected to blocking for 1 hour at room temperature by using 200 μl of a blocking solution (1% BSA/PBS), and then washed twice with the washing solution. […] The wells were washed 5 times with a washing solution, and 100 μl of a just-prepared TMB solution (manufactured and sold by Kirkegaad & Perry Laboratories, U.S.A.) was added thereto to effect a color reaction. 2 Minutes after the start of the color reaction, 100 μl of a 1 N sulfuric acid solution (manufactured and sold by Nacalai Tesque, Inc., Japan) was added to the wells to thereby terminate the reaction. Then, the absorbance at 450 nm was measured by means of a plate reader (manufactured and sold by Bio-Rad Laboratories, U.S.A.).
With respect to the measurement of the MPO concentration of the sample, MPO (manufactured and sold by Elastin Products Co., INC., U.S.A.) was added to the sample so that the final concentration of the added MPO became 5 ng/ml or 10 ng/ml, and the resultant mixture was measured with respect to the MPO concentration. From the obtained value of MPO concentration, a calibration curve for each sample was obtained. The obtained calibration curve was corrected, based on its relationship with a calibration curve obtained with respect to a standard MPO solution, and the corrected calibration curve of each sample was used to determine the MPO concentration of the whole blood. The measurement was conducted 3 times, and a mean value±standard deviation was obtained.

α-[4-(1,1,3,3,-Tetramethylbutyl)phenyl]-ω-hydroxypoly(oxy-1,2-ethanediyl) [Triton ™ X-100]
MPO concentration of whole blood: 6.43 ± 1.25 µg/mL
